Source: ChEMBL document CHEMBL3885881, “DrugMatrix”

Species: Rattus norvegicus
Assay: DrugMatrix - Regimen: Daily Repeat
Assay type: toxicity, organism-based, Sprague-Dawley
Parameters: regimen Daily Repeat, gender Male, age 6-8 weeks
Settings: in vivo, po, route oral GAVAGE, vehicle .5 % CMC; for ABSOLUTE BASOPHIL / BASOPHIL / EOSINOPHIL / ERYTHROCYTE COUNT / HEMATOCRIT / HEMOGLOBIN / LEUKOCYTE COUNT / LYMPHOCYTE / MEAN CORPUSCULAR HEMOGLOBIN / MEAN CORPUSCULAR HEMOGLOBIN CONCENTRATION / MEAN CORPUSCULAR VOLUME / MONOCYTE / NEUTROPHIL / PLATELET COUNT: tissue Blood; for ALANINE AMINOTRANSFERASE / ALBUMIN / ALKALINE PHOSPHATASE / ASPARTATE AMINOTRANSFERASE / BLOOD UREA NITROGEN / CHLORIDE / CHOLESTEROL / CREATINE PHOSPHOKINASE / CREATININE / GLUCOSE / PHOSPHORUS / POTASSIUM / SODIUM / TOTAL BILIRUBIN / TOTAL PROTEIN: tissue Plasma
[1] = 0 mg/kg, 72 h, dose level Control, time 3 day
[2] = 0 mg/kg, 120 h, dose level Control, time 5 day
[3] = 100 mg/kg, 72 h, dose level Low, time 3 day
[4] = 100 mg/kg, 120 h, dose level Low, time 5 day
[5] = 390 mg/kg, 72 h, dose level High, time 3 day
[6] = 390 mg/kg, 120 h, dose level High, time 5 day

Work on `CC[C@]1(O)CC[C@H]2[C@@H]3CCC4=CCCC[C@@H]4[C@H]3CC[C@@]21C` yielded an ABSOLUTE BASOPHIL [1] of 16.7 cells/µL, a BASOPHIL [1] of 0.17% and an EOSINOPHIL [1] of 0.62%. For the same compound, the “ERYTHROCYTE COUNT” value [1] was 6.55 x10E6/uL, the HEMATOCRIT [1] was 42% and the HEMOGLOBIN [1] was 13.48 G/DL. For the same compound, the “LEUKOCYTE COUNT” value [1] was 8.79 x10E3/uL, the LYMPHOCYTE [1] was 76.98% and the “MEAN CORPUSCULAR HEMOGLOBIN” value [1] was 20.57 pg. The “MEAN CORPUSCULAR HEMOGLOBIN CONCENTRATION” value [1] was 32.08 G/DL, the “MEAN CORPUSCULAR VOLUME” value [1] was 64.1 fL and the MONOCYTE [1] was 2.12%. The NEUTROPHIL [1] was 19%, the “PLATELET COUNT” value [1] was 1432.17 x10E3/uL and the “ALANINE AMINOTRANSFERASE” value [1] was 42.83 u/L. The ALBUMIN [1] was 3.63 G/DL, the “ALKALINE PHOSPHATASE” value [1] was 328.5 u/L and the “ASPARTATE AMINOTRANSFERASE” value [1] was 78.33 u/L. For the same compound, the “BLOOD UREA NITROGEN” value [1] was 14.5 mg/dL, the CHLORIDE [1] was 104.5 MEQ/L and the CHOLESTEROL [1] was 78.67 mg/dL. For the same compound, the “CREATINE PHOSPHOKINASE” value [1] was 282.33 u/L, the CREATININE [1] was 0.25 mg/dL and the GLUCOSE [1] was 173.67 mg/dL. It also gave a PHOSPHORUS [1] of 12.83 mg/dL, a POTASSIUM [1] of 6.7 MEQ/L and an SODIUM [1] of 145.83 MEQ/L. For the same compound, the “TOTAL BILIRUBIN” value [1] was 0.4 mg/dL, the “TOTAL PROTEIN” value [1] was 5.93 G/DL and the ABSOLUTE BASOPHIL [2] was 28 cells/µL. For the same compound, the BASOPHIL [2] was 0.26%, the EOSINOPHIL [2] was 0.44% and the “ERYTHROCYTE COUNT” value [2] was 6.99 x10E6/uL. For the same compound, the HEMATOCRIT [2] was 45.12%, the HEMOGLOBIN [2] was 14.26 G/DL and the “LEUKOCYTE COUNT” value [2] was 9.42 x10E3/uL. The LYMPHOCYTE [2] was 79.92%, the “MEAN CORPUSCULAR HEMOGLOBIN” value [2] was 20.44 pg and the “MEAN CORPUSCULAR HEMOGLOBIN CONCENTRATION” value [2] was 31.62 G/DL. For the same compound, the “MEAN CORPUSCULAR VOLUME” value [2] was 64.6 fL, the MONOCYTE [2] was 2.2% and the NEUTROPHIL [2] was 16.14%. The “PLATELET COUNT” value [2] was 1062.2 x10E3/uL, the “ALANINE AMINOTRANSFERASE” value [2] was 44 u/L and the ALBUMIN [2] was 3.73 G/DL. The “ALKALINE PHOSPHATASE” value [2] was 342.6 u/L, the “ASPARTATE AMINOTRANSFERASE” value [2] was 74.17 u/L and the “BLOOD UREA NITROGEN” value [2] was 13 mg/dL. The CHLORIDE [2] was 103 MEQ/L, the CHOLESTEROL [2] was 72.83 mg/dL and the “CREATINE PHOSPHOKINASE” value [2] was 184.67 u/L. The CREATININE [2] was 0.47 mg/dL, the GLUCOSE [2] was 168.17 mg/dL and the PHOSPHORUS [2] was 12.27 mg/dL. For the same compound, the POTASSIUM [2] was 6.98 MEQ/L, the SODIUM [2] was 147 MEQ/L and the “TOTAL BILIRUBIN” value [2] was 0.65 mg/dL. The “TOTAL PROTEIN” value [2] was 6.23 G/DL, the ABSOLUTE BASOPHIL [3] was 23.3 cells/µL and the BASOPHIL [3] was 0.23%. The EOSINOPHIL [3] was 0.63%, the “ERYTHROCYTE COUNT” value [3] was 7.14 x10E6/uL and the HEMATOCRIT [3] was 43.57%. For the same compound, the HEMOGLOBIN [3] was 14.03 G/DL, the “LEUKOCYTE COUNT” value [3] was 12.51 x10E3/uL and the LYMPHOCYTE [3] was 79.1%. For the same compound, the “MEAN CORPUSCULAR HEMOGLOBIN” value [3] was 19.63 pg, the “MEAN CORPUSCULAR HEMOGLOBIN CONCENTRATION” value [3] was 32.2 G/DL and the “MEAN CORPUSCULAR VOLUME” value [3] was 61 fL. The MONOCYTE [3] was 2.57%, the NEUTROPHIL [3] was 16.13% and the “PLATELET COUNT” value [3] was 1395 x10E3/uL. The “ALANINE AMINOTRANSFERASE” value [3] was 38 u/L, the ALBUMIN [3] was 3.67 G/DL and the “ALKALINE PHOSPHATASE” value [3] was 426 u/L. The “ASPARTATE AMINOTRANSFERASE” value [3] was 66.33 u/L, the “BLOOD UREA NITROGEN” value [3] was 10.33 mg/dL and the CHLORIDE [3] was 103.33 MEQ/L. For the same compound, the CHOLESTEROL [3] was 51 mg/dL, the “CREATINE PHOSPHOKINASE” value [3] was 235.33 u/L and the CREATININE [3] was 0.33 mg/dL. For the same compound, the GLUCOSE [3] was 164.33 mg/dL, the PHOSPHORUS [3] was 12.4 mg/dL and the POTASSIUM [3] was 6.67 MEQ/L. The SODIUM [3] was 145 MEQ/L, the “TOTAL BILIRUBIN” value [3] was 0.47 mg/dL and the “TOTAL PROTEIN” value [3] was 6 G/DL. The ABSOLUTE BASOPHIL [4] was 56.7 cells/µL, the BASOPHIL [4] was 0.47% and the EOSINOPHIL [4] was 0.23%. For the same compound, the “ERYTHROCYTE COUNT” value [4] was 6.95 x10E6/uL, the HEMATOCRIT [4] was 44.83% and the HEMOGLOBIN [4] was 14.17 G/DL. The “LEUKOCYTE COUNT” value [4] was 12.16 x10E3/uL, the LYMPHOCYTE [4] was 86.2% and the “MEAN CORPUSCULAR HEMOGLOBIN” value [4] was 20.37 pg. For the same compound, the “MEAN CORPUSCULAR HEMOGLOBIN CONCENTRATION” value [4] was 31.6 G/DL, the “MEAN CORPUSCULAR VOLUME” value [4] was 64.47 fL and the MONOCYTE [4] was 2%. The NEUTROPHIL [4] was 10.03%, the “PLATELET COUNT” value [4] was 1290.67 x10E3/uL and the “ALANINE AMINOTRANSFERASE” value [4] was 38.67 u/L. For the same compound, the ALBUMIN [4] was 3.67 G/DL, the “ALKALINE PHOSPHATASE” value [4] was 360 u/L and the “ASPARTATE AMINOTRANSFERASE” value [4] was 55 u/L. The “BLOOD UREA NITROGEN” value [4] was 10.67 mg/dL, the CHLORIDE [4] was 99 MEQ/L and the CHOLESTEROL [4] was 42 mg/dL. For the same compound, the “CREATINE PHOSPHOKINASE” value [4] was 164 u/L, the CREATININE [4] was 0.2 mg/dL and the GLUCOSE [4] was 173.33 mg/dL. For the same compound, the PHOSPHORUS [4] was 12.6 mg/dL, the POTASSIUM [4] was 7.33 MEQ/L and the SODIUM [4] was 147 MEQ/L. For the same compound, the “TOTAL BILIRUBIN” value [4] was 0.33 mg/dL, the “TOTAL PROTEIN” value [4] was 6.1 G/DL and the ABSOLUTE BASOPHIL [5] was 36.7 cells/µL. The BASOPHIL [5] was 0.27%, the EOSINOPHIL [5] was 0.43% and the “ERYTHROCYTE COUNT” value [5] was 7 x10E6/uL. The HEMATOCRIT [5] was 42.77%, the HEMOGLOBIN [5] was 14.3 G/DL and the “LEUKOCYTE COUNT” value [5] was 13.01 x10E3/uL. The LYMPHOCYTE [5] was 77.23%, the “MEAN CORPUSCULAR HEMOGLOBIN” value [5] was 20.43 pg and the “MEAN CORPUSCULAR HEMOGLOBIN CONCENTRATION” value [5] was 33.43 G/DL. The “MEAN CORPUSCULAR VOLUME” value [5] was 61.2 fL, the MONOCYTE [5] was 2.47% and the NEUTROPHIL [5] was 18%. For the same compound, the “PLATELET COUNT” value [5] was 1291 x10E3/uL, the “ALANINE AMINOTRANSFERASE” value [5] was 42.67 u/L and the ALBUMIN [5] was 3.6 G/DL. For the same compound, the “ALKALINE PHOSPHATASE” value [5] was 336.67 u/L, the “ASPARTATE AMINOTRANSFERASE” value [5] was 63.33 u/L and the “BLOOD UREA NITROGEN” value [5] was 11.33 mg/dL. The CHLORIDE [5] was 102.33 MEQ/L, the CHOLESTEROL [5] was 36.33 mg/dL and the “CREATINE PHOSPHOKINASE” value [5] was 193 u/L. For the same compound, the CREATININE [5] was 0.4 mg/dL, the GLUCOSE [5] was 166 mg/dL and the PHOSPHORUS [5] was 11.2 mg/dL. For the same compound, the POTASSIUM [5] was 6.37 MEQ/L, the SODIUM [5] was 145.67 MEQ/L and the “TOTAL BILIRUBIN” value [5] was 0.63 mg/dL. For the same compound, the “TOTAL PROTEIN” value [5] was 5.87 G/DL, the ABSOLUTE BASOPHIL [6] was 200 cells/µL and the BASOPHIL [6] was 1.57%. The EOSINOPHIL [6] was 0.97%, the “ERYTHROCYTE COUNT” value [6] was 8.29 x10E6/uL and the HEMATOCRIT [6] was 52.23%. The HEMOGLOBIN [6] was 16.3 G/DL, the “LEUKOCYTE COUNT” value [6] was 13.36 x10E3/uL and the LYMPHOCYTE [6] was 79.5%. For the same compound, the “MEAN CORPUSCULAR HEMOGLOBIN” value [6] was 19.77 pg, the “MEAN CORPUSCULAR HEMOGLOBIN CONCENTRATION” value [6] was 31.27 G/DL and the “MEAN CORPUSCULAR VOLUME” value [6] was 63.17 fL. The MONOCYTE [6] was 1.77%, the NEUTROPHIL [6] was 14.97% and the “PLATELET COUNT” value [6] was 1359.67 x10E3/uL. The “ALANINE AMINOTRANSFERASE” value [6] was 31 u/L, the ALBUMIN [6] was 4.13 G/DL and the “ALKALINE PHOSPHATASE” value [6] was 287.67 u/L. The “ASPARTATE AMINOTRANSFERASE” value [6] was 54.67 u/L, the “BLOOD UREA NITROGEN” value [6] was 14 mg/dL and the CHLORIDE [6] was 104.33 MEQ/L. The CHOLESTEROL [6] was 60 mg/dL, the “CREATINE PHOSPHOKINASE” value [6] was 166 u/L and the CREATININE [6] was 0.37 mg/dL. It also gave a GLUCOSE [6] of 151.33 mg/dL, a PHOSPHORUS [6] of 11.3 mg/dL and a POTASSIUM [6] of 7 MEQ/L. For the same compound, the SODIUM [6] was 155 MEQ/L, the “TOTAL BILIRUBIN” value [6] was 0.4 mg/dL and the “TOTAL PROTEIN” value [6] was 7.07 G/DL.
